Patent publication US20240298639A1 (priority 2021, published 2024)

Columns and labels:
Assay type in all cases: cell-based
[1] = tested on: wheat scab fungi (Fusarium graminearum and Fusarium asiaticum); assay: organism not typed; settings: for inhibition at 0.125 µg/mL / inhibition at 0.25 µg/mL / inhibition at 0.5 µg/mL: read-out: Mycelial growth inhibition rate (MGIR); for inhibition at 0.5 µg/mL: 0.5 mg/L
[2] = tested on: rice bakanae disease pathogen (Fusarium moniliforme); assay: microbe, parasite or virus in culture; settings: 1 mg/L; for inhibition at 1 µg/mL: Fusarium verticillioides, read-out: Mycelial growth inhibition rate
[3] = tested on: melon Fusarium wilt pathogen (Fusarium oxysporum); assay: microbe, parasite or virus in culture; settings: 1 mg/L; for inhibition at 1 µg/mL: Fusarium, read-out: Mycelial growth inhibition rate
[4] = tested on: banana Fusarium wilt pathogen (Fusarium oxysporum); assay: microbe, parasite or virus in culture; settings: 1 mg/L; for inhibition at 1 µg/mL: Fusarium, read-out: Mycelial growth inhibition rate

CCOC(=O)/C(C#N)=C(\N)c1ccc(N)cc1 [Compound 1]
inhibition at 0.125 µg/mL ([1]; 0.125 mg/L): 65.5 ± 4.3%
inhibition at 0.25 µg/mL ([1]; 0.25 mg/L): 81.2 ± 6.3%
inhibition at 0.5 µg/mL [1]: > 90%

CCOC(=O)/C(C#N)=C(\N)c1ccc(NC)cc1 [Compound 2]
inhibition at 1 µg/mL [2]: > 90%
inhibition at 1 µg/mL [3]: > 90%
inhibition at 0.125 µg/mL ([1]; 0.125 mg/L): > 90%
inhibition at 0.25 µg/mL ([1]; 0.25 mg/L): > 90%
inhibition at 0.5 µg/mL [1]: > 90%
inhibition at 1 µg/mL [4]: > 90%

CCNc1ccc(/C(N)=C(\C#N)C(=O)OCC)cc1 [Compound 3]
inhibition at 1 µg/mL [2]: > 90%
inhibition at 1 µg/mL [3]: > 90%
inhibition at 0.125 µg/mL ([1]; 0.125 mg/L): > 90%
inhibition at 0.25 µg/mL ([1]; 0.25 mg/L): > 90%
inhibition at 0.5 µg/mL [1]: > 90%
inhibition at 1 µg/mL [4]: > 90%

CCOC(=O)/C(C#N)=C(\N)c1ccc(N(C)CC)cc1 [Compound 8]
inhibition at 0.125 µg/mL ([1]; 0.125 mg/L): 88.3 ± 4.5%
inhibition at 0.25 µg/mL ([1]; 0.25 mg/L): > 90%
inhibition at 0.5 µg/mL [1]: > 90%

CCOC(=O)/C(C#N)=C(\N)c1ccc(N(CC)CC)cc1 [Compound 11]
inhibition at 1 µg/mL [2]: > 90%
inhibition at 1 µg/mL [3]: > 90%
inhibition at 0.125 µg/mL ([1]; 0.125 mg/L): > 90%
inhibition at 0.25 µg/mL ([1]; 0.25 mg/L): > 90%
inhibition at 0.5 µg/mL [1]: > 90%
inhibition at 1 µg/mL [4]: > 90%

CCOC(=O)/C(C#N)=C(\N)c1ccc(N2CCC2)cc1 [Compound 15]
inhibition at 0.125 µg/mL ([1]; 0.125 mg/L): 84.2 ± 4.5%
inhibition at 0.25 µg/mL ([1]; 0.25 mg/L): > 90%
inhibition at 0.5 µg/mL [1]: > 90%

CCOC(=O)/C(C#N)=C(\N)c1ccc(N2CCCC2)cc1 [Compound 16]
inhibition at 0.125 µg/mL ([1]; 0.125 mg/L): 82.3 ± 2.5%
inhibition at 0.25 µg/mL ([1]; 0.25 mg/L): > 90%
inhibition at 0.5 µg/mL [1]: > 90%

CCOC(=O)/C(C#N)=C(\N)c1ccc(N2CCCCC2)cc1 [Compound 17]
inhibition at 0.125 µg/mL ([1]; 0.125 mg/L): 81.4 ± 5.5%
inhibition at 0.25 µg/mL ([1]; 0.25 mg/L): > 90%
inhibition at 0.5 µg/mL [1]: > 90%

CCN(CC)c1ccc(/C(N)=C(\C#N)C(=O)OC)cc1 [Compound 28]
inhibition at 0.125 µg/mL ([1]; 0.125 mg/L): 74.4 ± 3.8%
inhibition at 0.25 µg/mL ([1]; 0.25 mg/L): 85.3 ± 3.3%
inhibition at 0.5 µg/mL [1]: > 90%

CCCOC(=O)/C(C#N)=C(\N)c1ccc(NC)cc1 [Compound 34]
inhibition at 0.125 µg/mL ([1]; 0.125 mg/L): 74.1 ± 2.3%
inhibition at 0.25 µg/mL ([1]; 0.25 mg/L): 84.9 ± 5.4%
inhibition at 0.5 µg/mL [1]: > 90%

CCCOC(=O)/C(C#N)=C(\N)c1ccc(NCC)cc1 [Compound 35]
inhibition at 0.125 µg/mL ([1]; 0.125 mg/L): 76.6 ± 3.3%
inhibition at 0.25 µg/mL ([1]; 0.25 mg/L): 85.8 ± 1.8%
inhibition at 0.5 µg/mL [1]: > 90%

CCCOC(=O)/C(C#N)=C(\N)c1ccc(N(C)C)cc1 [Compound 36]
inhibition at 0.125 µg/mL ([1]; 0.125 mg/L): 75.2 ± 3.3%
inhibition at 0.25 µg/mL ([1]; 0.25 mg/L): 85.4 ± 3.9%
inhibition at 0.5 µg/mL [1]: > 90%

CCCOC(=O)/C(C#N)=C(\N)c1ccc(N(CC)CC)cc1 [Compound 37]
inhibition at 0.125 µg/mL ([1]; 0.125 mg/L): 73.9 ± 5.5%
inhibition at 0.25 µg/mL ([1]; 0.25 mg/L): 84.8 ± 7.1%
inhibition at 0.5 µg/mL [1]: > 90%

phenamacril [reference compound]
Mycelial growth inhibition rate [2]: 25%
Mycelial growth inhibition rate [3]: 25%
Mycelial growth inhibition rate (MGIR) ([1]; 0.125 mg/L): 21.1 ± 2.3%
Mycelial growth inhibition rate (MGIR) ([1]; 0.25 mg/L): 36.1 ± 5.0%
Mycelial growth inhibition rate [4]: 25%
